Source: patent US9815854B2, “3-(3H-imidazo[4,5-B]pyridin-2-yl)-1H-pyrazolo[3,4-C]pyridine and therapeutic uses thereof” (Samumed, LLC, priority 2014, dated 2017)

Key:
[1] = system: Wnt activity (Sp5-Luc reporter, TCF/LEF binding sites) in SW480 colon carcinoma cells; test: Sp5-Luc Wnt reporter gene screening assay in SW480 colon carcinoma cells; format: cell-based, human; details: Homo sapiens
Outline: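 SW480 cells stably transduced with a lentiviral luciferase reporter driven by a Sp5 promoter with eight TCF/LEF sites were plated at 10,000/well in 10% FCS medium. Luminescence was normalised to DMSO and IC50 derived by four-parameter fit.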

[2] = system: primary human mesenchymal stem cells (hMSCs); test: Chondrogenesis induction screen in primary human mesenchymal stem cells (nodule imaging, Rhodamine B/Nile Red); format: cell-based; details: 6 days; for EC (100% of TGF-b3 activity): Homo sapiens, Mesenchymal stem cells, 144 h, concentration required to induce chondrogenesis equivalent to TGF-β3 (10 ng/mL), read-out: Conc (nM) of 100% TGF-β3 activity; for Max. Activity as % TGF-β3 activity: TGF-β3 (10 ng/mL) positive control
Procedure: The above synthesized compounds were screened using primary human mesenchymal stem cells (hMSCs) to determine their ability to induce chondrogenesis (process by which cartilage is developed).
Human Mesenchymal Stern Cell Culture: Primary human mesenchymal stem cells (hMSCs) were purchased from Lonza (Walkersville, Md.) and expanded in Mesenchymal Stem Cell Growth Media (Lonza). Cells between passage 3 and 6 were used for the experiments.
Compound Screening: Each compound was dissolved in DMSO as a 10 mM stock and used to prepare compound source plates. Serial dilution (1:3, 6-point dose-response curves from 2700 nM to 10 nM) and compound transfer was performed using the ECHO 550 (Labcyte, Sunnyvale, Calif.) into 96-well clear bottom assay plates (Greiner Bio-One) with appropriate DMSO backfill for a final DMSO concentration of 0.03%. hMSCs were plated at 20,000 cells/well in 250 μL/well incomplete Chondrogenic induction Medium (Lonza; DMEM, dexamethasone, ascorbate, insulin-transferrin-selenium [ITS supplement], gentamycin-amphotericin [GA-1000], sodium pyruvate, proline and L-glutamine). TGF-β3 (10 ng/mL) was used as a positive control for differentiation while negative control wells were treated with 75 nL DMSO for normalization and calculating EC50 values. Cells were incubated at 37° C. and 5% CO2 for 6 days. To image chondrogenic nodules, the cells were fixed using 4% formaldehyde (Electron Microscopy Sciences), and stained with 2 μg/mL Rhodamine B (Sigma-Aldrich) and 20 μM Nile Red (Sigma-Aldrich) [Johnson K., et.al, A Stem Cell-Based Approach to Cartilage Repair, Science, (2012), 336(6082), 717-721]. The nodules imaged (4 images per well at 4× magnification) by excitation at 531 nm and emission at 625 nm and quantified using the CellInsight CX5 (Thermo Scientific). Number of nodules in each well was normalized to the average of 3 DMSO treated wells on the same plate using Excel (Microsoft Inc.). The normalized averages (fold change over DMSO) of 3 replicate wells for each compound concentration were calculated. Due to solubility limitations of some of the compounds, curve fitting was incomplete leading to inaccurate EC50 determinations.
Using TGF-β3 as a positive control, the concentration of test compounds required to induce equivalent levels of chondrogenesis is reported. In addition, the maximum activity of each compound and the respective dose that each compound reached maximum chondrogenesis activity is reported.

[3] = system: primary human fibroblasts derived from IPF patients (LL29 cells); test: Inhibition of the fibrotic process in TGF-β1-treated primary human fibroblasts from IPF patients (αSMA staining); format: cell-based; details: Fibroblast, 96 h, TGF-β1 20 ng/mL, 4 days, read-out: Inhibition of fibrosis EC50
Outline: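 IPF-derived LL29 lung fibroblasts, 1,500 per well in F12 with 1% FBS, treated with compound (10 μM to […], 0.1% DMSO) and TGF-β1 20 ng/mL for 4 days at 37 °C. αSMA-positive live cells imaged and normalised to TGF-β1 controls; EC50 by nonlinear regression over triplicate wells.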

| SMILES | IC50 [1] | EC (100% of TGF-b3 activity) [2] | EC50 [3] | Max. Activity as % TGF-β3 activity [2] |
| --- | --- | --- | --- | --- |
| CC(C)(C)CC(=O)Nc1cncc(-c2cc3c(-c4nc5c(-c6ccccc6F)ccnc5[nH]4)n[nH]c3cn2)c1 [Compound 68, N-(5-(3-(7-(2-Fluorophenyl)-3H-imidazo[4,5-b]pyridin-2-yl)-1H-pyrazolo[3,4-c]pyridin-5-yl)pyridin-3-yl)-3,3-dimethylbutanamide] | 0.0244 µM | 9.3 nM | 0.09 µM | – |
| Cc1ccncc1-c1cc2c(-c3nc4c(-c5cc(F)cc(CNS(C)(=O)=O)c5)ccnc4[nH]3)n[nH]c2cn1 [Compound 421, N-(3-Fluoro-5-(2-(5-(4-methylpyridin-3-yl)-1H-pyrazolo[3,4-c]pyridin-3-yl)-3H-imidazo[4,5-b]pyridin-7-yl)benzyl)methanesulfonamide] | 0.0233 µM | 70 nM | – | 30% |
| CN(C)CCNc1cc(F)cc(-c2ccnc3[nH]c(-c4n[nH]c5cnc(-c6cncc(CNCC7CCCC7)c6)cc45)nc23)c1 [Compound 466, N^1-(3-(2-(5-(5-(((Cyclopentylmethyl)amino)methyl)pyridin-3-yl)-1H-pyrazolo[3,4-c]pyridin-3-yl)-3H-imidazo[4,5-b]pyridin-7-yl)-5-fluorophenyl)—N2,N2-dimethylethane-1,2-diamine] | 1.74 µM | – | ≤ 0.009 µM | – |
| Fc1cccc(-c2ccnc3[nH]c(-c4n[nH]c5cnc(-c6cn[nH]c6)cc45)nc23)c1 [Compound 939, 3-(7-(3-Fluorophenyl)-3H-imidazo[4,5-b]pyridin-2-yl)-5-(1H-pyrazol-4-yl)-1H-pyrazolo[3,4-c]pyridine] | 0.198 µM | – | 0.014 µM | – |
| Cn1cc(-c2cc3c(-c4nc5c(-c6cccc(F)c6)ccnc5[nH]4)n[nH]c3cn2)cn1 [Compound 940, 3-(7-(3-Fluorophenyl)-3H-imidazo[4,5-b]pyridin-2-yl)-5-(1-methyl-1H-pyrazol-4-yl)-1H-pyrazolo[3,4-c]pyridine] | 0.405 µM | – | 0.353 µM | – |
| Cc1ncc(-c2cc3c(-c4nc5c(-c6cccc(F)c6)ccnc5[nH]4)n[nH]c3cn2)n1C [Compound 941] | > 10 µM | – | 1 µM | – |
| NC1CN(c2cncc(-c3cc4c(-c5nc6c(-c7cccc(F)c7)ccnc6[nH]5)n[nH]c4cn3)n2)C1 [Compound 942, 1-(6-(3-(7-(3-Fluorophenyl)-3H-imidazo[4,5-b]pyridin-2-yl)-1H-pyrazolo[3,4-c]pyridin-5-yl)pyrazin-2-yl)azetidin-3-amine] | 1.49 µM | – | 1.47 µM | – |
| O=C(CC1CCNCC1)Nc1cncc(-c2cc3c(-c4nc5c(-c6cccc(F)c6)ccnc5[nH]4)n[nH]c3cn2)c1 [Compound 945] | 0.463 µM | 54.7 nM | 0.04 µM | – |
| CN(C)CCOc1cncc(-c2cc3c(-c4nc5c(-c6cccc(F)c6)ccnc5[nH]4)n[nH]c3cn2)c1 [Compound 947, 2-((5-(3-(7-(3-Fluorophenyl)-3H-imidazo[4,5-b]pyridin-2-yl)-1H-pyrazolo[3,4-c]pyridin-5-yl)pyridin-3-yl)oxy)-N,N-dimethylethan-1-amine] | 1.6 µM | – | ≥ 9.99 µM | – |
| COc1cncc(-c2cc3c(-c4nc5c(-c6cccc(F)c6)ccnc5[nH]4)n[nH]c3cn2)c1 [Compound 948, 3-(7-(3-Fluorophenyl)-3H-imidazo[4,5-b]pyridin-2-yl)-5-(5-methoxypyridin-3-yl)-1H-pyrazolo[3,4-c]pyridine] | 0.85 µM | – | 0.632 µM | – |
| Oc1cncc(-c2cc3c(-c4nc5c(-c6cccc(F)c6)ccnc5[nH]4)n[nH]c3cn2)c1 [Compound 949, 5-(3-(7-(3-Fluorophenyl)-3H-imidazo[4,5-b]pyridin-2-yl)-1H-pyrazolo[3,4-c]pyridin-5-yl)pyridin-3-ol] | 0.111 µM | 143 nM | 0.031 µM | 100% |
| Fc1cccc(-c2ccnc3[nH]c(-c4n[nH]c5cnc(-c6cnccn6)cc45)nc23)c1 [Compound 954, 3-(7-(3-Fluorophenyl)-3H-imidazo[4,5-b]pyridin-2-yl)-5-(pyrazin-2-yl)-1 H-pyrazolo[3,4-c]pyridine] | 0.661 µM | – | ≥ 9.99 µM | – |
| COc1cc(F)cc(-c2ccnc3[nH]c(-c4n[nH]c5cnc(-c6cncc(NC(=O)CC(C)C)c6)cc45)nc23)c1 [Compound 1394, N-(5-(3-(7-(3-Fluoro-5-methoxyphenyl)-3H-imidazo[4,5-b]pyridin-2-yl)-1H-pyrazolo[3,4-c]pyridin-5-yl)pyridin-3-yl)-3-methyl butanamide] | > 10 µM | – | 0.495 µM | – |

Now those with a lower IC50 [1], led by results:

| IC50 [1] | SMILES | EC (100% of TGF-b3 activity) [2] | EC50 [3] | Max. Activity as % TGF-β3 activity [2] |
| --- | --- | --- | --- | --- |
| 0.0221 µM | Fc1cccc(-c2ccnc3[nH]c(-c4n[nH]c5cnc(-c6cncc(CN7CCC(F)(F)C7)c6)cc45)nc23)c1 [Compound 25, 5-(5-((3,3-Difluoropyrrolidin-1-yl)methyl)pyridin-3-yl)-3-(7-(3-fluorophenyl)-3H-imidazo[4,5-b]pyridin-2-yl)-1H-pyrazolo[3,4-c]pyridine] | 112 nM | 0.02 µM | – |
| 0.0103 µM | CC(C)Nc1cncc(-c2cc3c(-c4nc5c(-c6ccc(F)cc6)ccnc5[nH]4)n[nH]c3cn2)c1 [Compound 38, 5-(3-(7-(4-Fluorophenyl)-3H-imidazo[4,5-b]pyridin-2-yl)-1H-pyrazolo[3,4-c]pyridin-5-yl)-N-isopropylpyridin-3-amine] | 74.9 nM | 0.034 µM | 300% |
| 0.0167 µM | FC1(F)CCN(Cc2cncc(-c3cc4c(-c5nc6c(N7CCCCC7)ccnc6[nH]5)n[nH]c4cn3)c2)C1 [Compound 181, 5-(5-((3,3-Difluoropyrrolidin-1-yl)methyl)pyridin-3-yl)-3-(7-(piperidin-1-yl)-3H-imidazo[4,5-b]pyridin-2-yl)-1H-pyrazolo[3,4-c]pyridine] | 25.6 nM | 0.053 µM | – |
| 0.0161 µM | c1cncc(-c2cc3c(-c4nc5cccnc5[nH]4)n[nH]c3cn2)c1 [Compound 238] | 113 nM | 0.369 µM | 30% |
| 0.0097 µM | CC(C)(C)C(=O)Nc1cncc(-c2cc3c(-c4nc5c(-c6ccsc6)ccnc5[nH]4)n[nH]c3cn2)c1 [Compound 268, N-(5-(3-(7-(Thiophen-3-yl)-3H-imidazo[4,5-b]pyridin-2-yl)-1H-pyrazolo[3,4-c]pyridin-5-yl)pyridin-3-yl)pivalamide] | 25.8 nM | 0.141 µM | – |
| 0.0175 µM | CCCC(=O)Nc1cncc(-c2cc3c(-c4nc5c(-c6cccs6)ccnc5[nH]4)n[nH]c3cn2)c1 [Compound 329, N-(5-(3-(7-(Thiophen-2-yl)-3H-imidazo[4,5-b]pyridin-2-yl)-pyrazolo[3,4-c]pyridin-5-yl)pyridin-3-yl)butyramide] | 110 nM | 0.034 µM | 300% |
| 0.0095 µM | CCCC(=O)Nc1cncc(-c2cc3c(-c4nc5c(-c6ccc(C)s6)ccnc5[nH]4)n[nH]c3cn2)c1 [Compound 381, N-(5-(3-(7-(5-Methylthiophen-2-yl)-3H-imidazo[4,5-b]pyridin-2-yl)-1H-pyrazolo[3,4-c]pyridin-5-yl)pyridin-3-yl)butyramide] | 59.6 nM | 0.018 µM | – |
